Experimental data from article PMC11460631, “Inhibition of transient receptor potential vanilloid 3 channels by antimalarial hydroxychloroquine alleviates TRPV3-dependent dermatitis” (The Journal of Biological Chemistry, 2024).

Experiments:
mTRPM8 = molecular target: T1, mTRPM8 (Mus musculus, UniProt Q8R4D5); experiment: Whole-cell current recordings, mTRPM8; format: cell-based, murine
T1 construct: YFP or GFP; expressed in transfected cells; host or cells: HEK293T
Protocol: To elucidate the specificity of HCQ inhibition on TRPV3, we conducted whole-cell current recordings on other known pruritus-related TRP channels, such as hTRPA1, mTRPV1, mTRPV4, and mTRPM8 (Fig. 3, A and F). […] Because of the relatively larger inhibition of HCQ on mTRPM8 current, we tested the concentration dependence of HCQ on mTRPM8 channels.
HEK293T cells are cultured using Dulbecco's modified Eagle's medium containing 10% fetal bovine serum and 1% penicillin-streptomycin in a cell incubator with 5% CO2 at 37 °C. Plasmids of murine TRPV1, TRPV4, TRPM8, and human TRPV3, TRPA1 are labeled with YFP or GFP as indicators for subsequent electrophysiological recordings. Complementary DNA constructs of ion channels were transiently transfected with Lipofectamine 3000 (Invitrogen). And 12 to 18 h after transient transfection, electrophysiological recordings were performed.
Patch-clamp recordings were carried out with a HEKA EPC10 amplifier controlled by PatchMaster software (HEKA; https://www.heka.com/products/products_main.html#soft_pm) ([36]). Patch pipettes were prepared from borosilicate glass and fire-polished to the resistance of 3 to 8 MΩ by P-97 puller for whole-cell recordings. For single-channel recordings, patch pipettes were fire-polished to a higher resistance of 6 to 10 MΩ. Both bath solution and pipette solution contained 130 mM NaCl, 10 mM glucose, 0.2 mM EDTA, and 3 mM Hepes and were adjusted to pH 7.2 to 7.4 with NaOH. Whole-cell recordings and single-channel recordings were performed at ± 80 mV. The current was sampled at 10 kHz and filtered at 2.9 kHz. All recordings were performed at room temperature (25 °C). A gravity-driven system (RSC-200, Bio-Logic) with freely rotated perfusion tubes was used for the perfusion of ligands. Bath and ligand solutions were delivered through separate tubes to minimize the mixing of solutions. […]
(§1) All data from whole-cell recordings were analyzed in Igor Pro (WaveMetrics). IC50 values were determined by fitting the Hill equation to concentration-response relationships. […]

TRPV3 L591A mutant = molecular target: T2, TRPV3 L591A mutant (Homo sapiens, UniProt Q8NET8, L591A); experiment: Whole-cell recording of TRPV3 L591A mutant; format: cell-based
T2 construct: YFP or GFP; expressed in transfected cells; host or cells: HEK293T
T2 sequence (Q8NET8 1-790 L591A): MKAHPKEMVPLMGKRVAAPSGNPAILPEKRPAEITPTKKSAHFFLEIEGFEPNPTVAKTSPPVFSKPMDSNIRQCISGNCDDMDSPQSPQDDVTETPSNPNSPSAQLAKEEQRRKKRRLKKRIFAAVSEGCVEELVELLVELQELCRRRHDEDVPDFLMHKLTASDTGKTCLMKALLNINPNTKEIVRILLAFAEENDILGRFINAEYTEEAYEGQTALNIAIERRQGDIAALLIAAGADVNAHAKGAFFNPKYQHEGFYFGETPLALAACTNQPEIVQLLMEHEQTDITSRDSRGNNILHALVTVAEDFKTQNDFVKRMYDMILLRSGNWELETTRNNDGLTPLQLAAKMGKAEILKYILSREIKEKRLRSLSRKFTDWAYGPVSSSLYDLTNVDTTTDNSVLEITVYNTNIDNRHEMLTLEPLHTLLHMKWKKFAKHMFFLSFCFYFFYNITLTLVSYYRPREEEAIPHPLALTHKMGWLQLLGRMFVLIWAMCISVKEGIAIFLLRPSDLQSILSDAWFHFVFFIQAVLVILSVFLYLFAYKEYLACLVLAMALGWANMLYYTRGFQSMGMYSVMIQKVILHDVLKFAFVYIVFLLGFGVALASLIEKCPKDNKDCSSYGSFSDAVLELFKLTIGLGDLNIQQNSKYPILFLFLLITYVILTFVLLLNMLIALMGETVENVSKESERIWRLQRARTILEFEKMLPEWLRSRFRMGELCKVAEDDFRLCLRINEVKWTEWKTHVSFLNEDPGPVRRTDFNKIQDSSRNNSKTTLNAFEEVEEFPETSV
Source text: As we mentioned above, HCQ may act as a pore blocker of TRPV3. To probe the binding configuration of HCQ to TRPV3, we carried out molecular docking using Rosetta suite (https://rosettacommons.org) ([21]) and validated the docking models with point mutations in TRPV3 (Fig. 4A). […] Furthermore, when we introduced L670A to L591A mutant, we also observed a left shift on the concentration–response curve on this double mutant as compared to L591A mutant (Fig. 4H).
Figure 4 Residues of the pore domain are critical for HCQ inhibition on TRPV3.A, left panel, docking model of HCQ to the pore domain of TRPV3 structure (6uw4). Right panels, top view and side view of the HCQ-binding pocket. B-J, representative whole-cell recording of TRPV3 and mutants in response to 1 mM 2-APB, the mixture of 1 mM 2-APB and concentration gradients of HCQ with the holding potential of ± 80 mV. K, concentration–response curves of HCQ in WT TRPV3 and mutants (n = 3–5 cells). L, quantification of the inhibitory ratio of HCQ (100 μM) on WT, L591A, and N671Q. […]
as §1

T1 sequence (Q8R4D5 whole entry): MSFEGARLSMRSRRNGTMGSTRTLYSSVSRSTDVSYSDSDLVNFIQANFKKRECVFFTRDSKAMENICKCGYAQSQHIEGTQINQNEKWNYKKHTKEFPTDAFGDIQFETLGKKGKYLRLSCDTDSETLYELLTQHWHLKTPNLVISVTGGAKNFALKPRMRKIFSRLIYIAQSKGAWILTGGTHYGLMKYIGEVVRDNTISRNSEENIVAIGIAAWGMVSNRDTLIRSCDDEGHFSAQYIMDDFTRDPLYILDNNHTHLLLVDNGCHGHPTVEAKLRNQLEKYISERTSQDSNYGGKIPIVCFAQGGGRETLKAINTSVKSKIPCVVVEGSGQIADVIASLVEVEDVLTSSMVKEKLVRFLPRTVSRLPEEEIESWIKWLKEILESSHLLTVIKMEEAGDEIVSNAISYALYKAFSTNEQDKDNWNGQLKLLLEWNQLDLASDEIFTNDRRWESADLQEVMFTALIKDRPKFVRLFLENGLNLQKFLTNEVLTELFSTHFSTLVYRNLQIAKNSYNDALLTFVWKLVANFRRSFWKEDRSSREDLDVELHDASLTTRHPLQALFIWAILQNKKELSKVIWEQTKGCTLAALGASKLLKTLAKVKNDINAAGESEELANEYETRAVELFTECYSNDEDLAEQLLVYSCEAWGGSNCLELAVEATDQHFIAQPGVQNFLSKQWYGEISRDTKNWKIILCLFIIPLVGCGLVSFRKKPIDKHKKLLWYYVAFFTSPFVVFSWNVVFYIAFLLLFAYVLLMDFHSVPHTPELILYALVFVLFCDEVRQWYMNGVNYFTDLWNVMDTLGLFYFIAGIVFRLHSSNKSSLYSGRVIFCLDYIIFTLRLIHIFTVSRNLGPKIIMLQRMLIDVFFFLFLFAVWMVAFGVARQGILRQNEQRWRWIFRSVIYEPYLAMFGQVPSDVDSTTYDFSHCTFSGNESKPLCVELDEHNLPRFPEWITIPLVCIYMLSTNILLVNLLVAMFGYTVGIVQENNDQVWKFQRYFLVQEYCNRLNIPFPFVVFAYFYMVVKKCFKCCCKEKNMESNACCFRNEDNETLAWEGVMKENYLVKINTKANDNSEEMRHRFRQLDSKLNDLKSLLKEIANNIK

reduction of mTRPM8 current (mTRPM8; 100 μM HCQ, current activated by 1 mM menthol): 27.94% ± 10.91%
IC50 (mTRPM8; concentration dependence, whole-cell, read-out: IC50 on mTRPM8 channels): 263 ± 88.6 µM
IC50 of mTRPM8 relative to IC50 of hTRPV3 (mTRPM8; selectivity ratio): more than 5 fold
inhibition at 100 µM (TRPV3 L591A mutant; 100 μM HCQ): 28.4%
IC50 (TRPV3 L591A mutant; 1 mM 2-APB, ± 80 mV): 203 ± 10.8 µM
Compound: CCN(CCO)CCCC(C)Nc1ccnc2cc(Cl)ccc12 (centres unmarked) [HCQ, hydroxychloroquine]
